Source: patent US8278327B2, “PDE10 inhibitors and related compositions and methods” (Omeros Corporation, priority 2006, dated 2012)
Blank lines part the entries; values can stand above or below the compound they belong to.

Key:
[1] = molecular target: T1, recombinant human PDE 10A1 (Homo sapiens, UniProt Q9Y233); test: PDE10 biochemical assay (modified two-step method of Thompson and Appleman, or SPA with [3H]-cGMP); conditions: PDE10 inhibition
T1 construct: made in house; host or cells: Sf9 insect cells, baculovirus
T1 sequence (Q9Y233 1-779 isoform Q9Y233-1): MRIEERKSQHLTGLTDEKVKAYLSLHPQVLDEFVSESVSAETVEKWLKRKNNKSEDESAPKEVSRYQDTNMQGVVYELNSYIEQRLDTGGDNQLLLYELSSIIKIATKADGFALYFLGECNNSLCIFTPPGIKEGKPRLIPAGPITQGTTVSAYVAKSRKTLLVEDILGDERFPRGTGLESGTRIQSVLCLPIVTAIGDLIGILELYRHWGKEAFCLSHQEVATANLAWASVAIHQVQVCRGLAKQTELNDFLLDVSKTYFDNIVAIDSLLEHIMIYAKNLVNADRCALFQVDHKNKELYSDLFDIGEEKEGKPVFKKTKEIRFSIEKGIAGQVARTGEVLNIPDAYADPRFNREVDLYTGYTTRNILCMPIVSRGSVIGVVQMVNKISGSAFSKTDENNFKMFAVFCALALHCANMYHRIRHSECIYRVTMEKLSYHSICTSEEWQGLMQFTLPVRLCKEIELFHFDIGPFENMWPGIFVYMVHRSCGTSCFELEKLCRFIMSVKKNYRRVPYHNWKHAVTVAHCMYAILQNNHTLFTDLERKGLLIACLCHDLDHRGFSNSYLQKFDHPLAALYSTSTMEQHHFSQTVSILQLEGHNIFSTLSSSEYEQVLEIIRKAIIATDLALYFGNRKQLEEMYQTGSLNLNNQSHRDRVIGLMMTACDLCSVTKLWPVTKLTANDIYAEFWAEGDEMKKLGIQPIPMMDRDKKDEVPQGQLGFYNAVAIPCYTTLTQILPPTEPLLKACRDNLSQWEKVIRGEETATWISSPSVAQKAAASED
Description: Compounds of this invention may be assayed to determine their IC50 values by a modification of the two-step method of Thompson and Appleman (Biochemistry 10; 311-316; 1971). In short, cAMP is spiked with (^3H)cAMP and incubated with PDE10 and various concentrations of a compound of structure (I). After the appropriate incubation time, the reaction is terminated by heating. The mixture is then subjected to treatment with snake venom phosphatase. The phosphatase hydrolyzes any AMP in the mixture, but leaves unreacted cAMP intact. Thus, by separating cAMP from the mixture and determining its concentration (by radiography), the percent of inhibition can be determined. IO50 values can be calculated by performing the experiment at several concentrations using standard graphical means. A detailed description of the actual technique used for IC50 assays are shown in Example 8.
The phosphodiesterase (PDE) assay was performed using recombinant human PDE 1A3, 2A3, 3 catalytic region, 4 catalytic region, 5 catalytic region, 7A, 8A, 9A2, 10A1 and 11A1 enzymes expressed in a baculoviral system using Sf9 cells. PDE activity was measured using a modification of the two-step method of Thompson and Appleman described above which was adapted for 96 well plate format. […] The final assay volume was 110 μl with assay buffer (10 mM MgCl2; 40 mM Tris.HCl; pH 7.4). Reactions were initiated with enzyme and incubated with (^3H)—substrate and substance for 20 minutes at 30° C. The reaction was terminated by denaturing the enzyme (heating the reaction to 70° C. for 2 minutes). […] The soluble fraction (50 μl) was then added to microscint-20 (200 μl) and counted on a Top Count Plate reader. Radioactivity units were plotted against inhibitor concentration and IC50 values obtained using Graph Pad Prism software.
Alternatively, phosphodiesterase activity was measured by scintillation proximity assay (SPA) with [^3H]-cGMP as substrate. […] Inhibition was evaluated at 8 concentrations in duplicate. […] The mixture was shaken, allowed to settle for 3 hours, and counted in a Wallac plate counter. […]

C57BL/6 male mice [2] = test: PCP-induced hyperactivity; format: in vivo; conditions: PCP 5 mg/kg, p<0.001
Description: Psychostimulant-induced hyperactivity is measured by injecting animals with PCP or amphetamine and monitoring the animals' activity levels in the VersaMax chambers (Accuscan Instruments, Columbus, Ohio) measuring 40×40 cm. Locomotor activity is detected by photobeam breaks as the animal crosses each beam. The animal is placed in the center of the field and left undisturbed for a period of time (20 min to 2 hr) to measure its spontaneous activity in a novel environment. Measurements used to assess locomotor activity include: horizontal activity, total distance traveled, vertical activity (rearing events—animal raises up on hindlimbs), rotation, stereotypy, and distance traveled in the center compared to total distance traveled (center:total distance ratio). Psychostimulants, including dopamine agonist amphetamine and NMDA antagonist PCP, induce psychosis-like conditions manifested as hyperactivity and increased stereotypic behavior. Known antipsychotics are able to reverse psychostimulant-induced hyperactivity and increased stereotypy.

C57BL/6 male mice [3] = test: Amphetamine-induced hyperactivity; format: in vivo; conditions: 50 mg/kg i.p., amphetamine 5 mg/kg, vs vehicle+amph control, p<0.01
C57BL/6 male mice [4] = test: Conditioned avoidance response (CAR); format: in vivo
Text: Conditioned avoidance response (CAR) is a behavioral test to evaluate antipsychotic effect of a test compound. It utilizes a shuttle box (Med Associates, St. Albans, Vt.) with two equal chambers separated by a retractable door. Each chamber is fitted with metal grid floor that is capable of delivering electric shocks independently. A computer program is used to implement the testing paradigm as well as record the animal's movement between the two chambers through infrared beam sensors. The testing paradigm is as the follows. A mouse is placed into one chamber. A light (conditioned stimulus, CS) comes on. Five seconds later, mild electric shocks (0.4 mA) (unconditioned stimulus, US) are delivered to the chamber where the mouse is located (as detected by infrared beams) until the mouse escapes to the adjacent chamber or until 10 sec has elapsed. The US and CS always co-terminate. With randomized inter-trial intervals averaging 15 sec, 30 such CS-US pairing trials are given to each mouse each day. For each trial, an escape response is registered if the mouse crosses to the other chamber after being shocked (i.e., during the 10-sec US period), and an avoidance response is registered if the mouse crosses to the other chamber during the first 5-sec CS only period. The animals are trained in such paradigm for 15-20 days, during which the average percentage of avoidance responses will improve to 60-80%. […] These trained animals are then used for compound testing using the same paradigm.
C57BL/6 male mice were trained in the CAR paradigm to predict and avoid the noxious stimulus, reaching a plateau of approximately 20-25 avoidance responses per 30 trials (“training plateau”) each day. The mice were then injected with compound or vehicle via i.p., and 20 minutes later they were tested for 30 trials in the CAR paradigm. Vehicle treatment and compound treatment were given to the same animals on alternating days, and the effect of compound in reducing avoidance response was analyzed through within-subject comparison (paired t-test).

C57BL/6 male mice [5] = conditions: 50 mg/kg i.p., 30 min after injection, vs vehicle control
C57BL/6 male mice [6] = test: Novel object recognition test (PCP-disrupted); format: in vivo; conditions: 10 mg/kg i.p. with PCP 5 mg/kg, tested 24 h later, p<0.01 vs PCP-treated group
Description: The antipsychotic effect of a test compound may also be evaluated by a novel object recognition test. In a novel object recognition test, mice are housed singly for 1-2 days and then injected with vehicle, PCP, or PCP plus the test compound. Twenty minutes after injection, the mice are presented with and allowed to explore two identical objects for 30 minutes. At the end of the exploration period the objects are removed. Twenty-four hours later each mouse is presented with a pair of objects, one familiar and one novel. After a variable delay, the mice begin to explore the objects. The time exploring each object is measured for 4 minutes starting from the first approach to either object. The fraction of total exploration time spent studying the novel object is recorded as a measure of novelty recognition.
At the end of the exploration period, the objects were removed. Twenty-four hours later, each mouse was presented with a pair of objects, one familiar and one novel, and the time exploring each object was measured for 4 minutes starting from the first approach to either object.

PDE10 = conditions: Soderling and Beavo 2000, read-out: IC50 (50% inhibitory concentration); cited from earlier work
[7] = 50 mg/kg i.p., vs vehicle+PCP control
[8] = 0.2 mg/kg i.p., vs vehicle+PCP control

IC50 [1]: ≤ 1000 nM
SMILES: COc1cc(/C=N/NC(=O)CC2Sc3ccccc3NC2=O)cc(OC)c1OC (stereo not drawn) [Compound 1-1, (E)-2-(3-oxo-3,4-dihydro-2H-benzo[B][1,4]thiazin-2-yl)-N′-(3,4,5-trimethoxybenzylidene)acetohydrazide]

IC50 [1]: ≤ 1000 nM
SMILES: CCOc1ccc(/C=N/NC(=O)CSc2nc3ccccc3n2Cc2ccccc2)cc1OC [Compound 4-1, (E)-2-(1-benzyl-1H-benzo[d]imidazol-2-ylthio)-N′-(4-ethoxy-3-methoxybenzylidene)acetohydrazide]

SMILES: COc1ccc(/C=N/NC(=O)CSc2cc(C)nc3ccccc23)cc1OC [Compound 5-1, (E)-N′-(3,4-dimethoxybenzylidene)-2-(2-methylquinolin-4-ylthio)acetohydrazide]
IC50 [1]: ≤ 1000 nM
hyperactivity induced by PCP (C57BL/6 male mice [2]; [7]): completely abolishes
stereotypy induced by PCP (C57BL/6 male mice [2]; [7]): completely abolishes
hyperactivity induced by amphetamine (C57BL/6 male mice [3]): partially but significantly reduce
stereotypy induced by amphetamine (C57BL/6 male mice [3]): partially but significantly reduce
number of avoidance response (C57BL/6 male mice [4]; 30 mg/kg i.p., tested 20 min later, 30 trials, p<0.001): significantly reduces
startle response (C57BL/6 male mice [5]): does not affect
PPI at 3 different prepulse levels (C57BL/6 male mice [5]; p<0.05, p<0.01): significantly increases

SMILES: COc1cc(/C=N/NC(=O)CSc2cc(C)nc3ccccc23)cc(OC)c1O [Compound 5-110]
hyperactivity induced by PCP (C57BL/6 male mice [2]; 30 mg/kg): significantly reduces
stereotypy induced by PCP (C57BL/6 male mice [2]; 30 mg/kg): significantly reduces
number of avoidance response (C57BL/6 male mice [4]; 10 mg/kg, procedure as in Example 12, p<0.01): significantly reduces

SMILES: COc1ccc2nc(C)cc(SCC(=O)NN=Cc3cc(OC)c(OC)c(OC)c3)c2c1 [Compound 5-184]
novel object recognition performance (C57BL/6 male mice [6]): able to restore

SMILES: CC(C)Cn1c(=O)n(C)c(=O)c2[nH]cnc21 [IBMX]
IC50 (PDE10): 2600 nM

SMILES: O=C(CCCN1CCC(O)(c2ccc(Cl)cc2)CC1)c1ccc(F)cc1 [haloperidol, reference compound]
hyperactivity induced by PCP (C57BL/6 male mice [2]; [8]): significantly reduce
stereotypy induced by PCP (C57BL/6 male mice [2]; [8]): significantly reduce
number of avoidance response (C57BL/6 male mice [4]; 0.15 mg/kg i.p., tested 20 min later, 30 trials, p<0.001): significantly reduces
